In patent publication US10065956B2, “Ethynyl derivatives” (Hoffmann-La Roche Inc., priority 2015, dated 2018):

Target: T1, human mGlu4 receptor (Homo sapiens, UniProt Q14833)
T1 construct: expressed in transfected cells; host or cells: monoclonal HEK-293 cell line, stably transfected
Experiment: Ca2+ mobilization in vitro assay on recombinant human mGlu4 expressed in HEK293 cells (PAM, L-AP4 at EC20)
Type: cell-based
Settings: for Emax: HEK293, maximal response in % of the maximal stimulatory effect obtained with saturating concentrations of L-AP4, read-out: Eff. (%); for EC50: HEK293 cells expressing human mGlu4, L-AP4 added at EC20
Description: FIG. 1: Illustration of the experimental outline for mGlu4 PAM Ca2+ mobilization screening assay and the determination of EC50 and % Emax values.
Determination of EC50 Values Using a Ca2+ Mobilization In Vitro Assay on Recombinant Human mGlu4 Expressed in HEK293 Cells:
A monoclonal HEK-293 cell line stably transfected with a cDNA encoding for the human mGlu4 receptor was generated; for the work with mGlu4 Positive Allosteric Modulators (PAMs), a cell line with low receptor expression levels and low constitutive receptor activity was selected to allow the differentiation of agonistic versus PAM activity. Cells were cultured according to standard protocols (Freshney, 2000) in Dulbecco's Modified Eagle Medium with high glucose supplemented with 1 mM glutamine, 10% (vol/vol) heat-inactivated bovine calf serum, Penicillin/Streptomycin, 50 μg/ml hygromycin and 15 μg/ml blasticidin (all cell culture reagents and antibiotics from Invitrogen, Basel, Switzerland).
About 24 hrs before an experiment, 5×10^4 cells/well were seeded in poly-D-lysine coated, black/clear-bottomed 96-well plates. The cells were loaded with 2.5 μM Fluo-4AM in loading buffer (1×HBSS, 20 mM HEPES) for 1 hr at 37° C. and washed five times with loading buffer. The cells were transferred into a Functional Drug Screening System 7000 (Hamamatsu, Paris, France), and 11 half logarithmic serial dilutions of test compound at 37° C. were added and the cells were incubated for 10-30 min. with on-line recording of fluorescence. Following this pre-incubation step, the agonist (2S)-2-amino-4-phosphonobutanoic acid (L-AP4) was added to the cells at a concentration corresponding to EC20 with on-line recording of fluorescence; in order to account for day-to-day variations in the responsiveness of cells, the EC20 of L-AP4 was determined immediately ahead of each experiment by recording of a full dose-response curve of L-AP4. Responses were measured as peak increase in fluorescence minus basal (i.e. fluorescence without addition of L-AP4), normalized to the maximal stimulatory effect obtained with saturating concentrations of L-AP4. Graphs were plotted with the % maximal stimulatory using XLfit, a curve fitting program that iteratively plots the data using Levenburg Marquardt algorithm. The single site competition analysis equation used was y=A+((B−A)/(1+((x/C)D))), where y is the % maximal stimulatory effect, A is the minimum y, B is the maximum y, C is the EC50, x is the log 10 of the concentration of the competing compound and D is the slope of the curve (the Hill Coefficient). From these curves the EC50 (drug concentration at which 50% of the maximal receptor activation was achieved), the Hill coefficient as well as the maximal response in % of the maximal stimulatory effect obtained with saturating concentrations of L-AP4 were calculated (see FIG. 1). […] A depression of the signal observed after addition of the EC20 concentration of L-AP4 was indicative of an inhibitory activity of the test compound.

T1 sequence (Q14833 33-912): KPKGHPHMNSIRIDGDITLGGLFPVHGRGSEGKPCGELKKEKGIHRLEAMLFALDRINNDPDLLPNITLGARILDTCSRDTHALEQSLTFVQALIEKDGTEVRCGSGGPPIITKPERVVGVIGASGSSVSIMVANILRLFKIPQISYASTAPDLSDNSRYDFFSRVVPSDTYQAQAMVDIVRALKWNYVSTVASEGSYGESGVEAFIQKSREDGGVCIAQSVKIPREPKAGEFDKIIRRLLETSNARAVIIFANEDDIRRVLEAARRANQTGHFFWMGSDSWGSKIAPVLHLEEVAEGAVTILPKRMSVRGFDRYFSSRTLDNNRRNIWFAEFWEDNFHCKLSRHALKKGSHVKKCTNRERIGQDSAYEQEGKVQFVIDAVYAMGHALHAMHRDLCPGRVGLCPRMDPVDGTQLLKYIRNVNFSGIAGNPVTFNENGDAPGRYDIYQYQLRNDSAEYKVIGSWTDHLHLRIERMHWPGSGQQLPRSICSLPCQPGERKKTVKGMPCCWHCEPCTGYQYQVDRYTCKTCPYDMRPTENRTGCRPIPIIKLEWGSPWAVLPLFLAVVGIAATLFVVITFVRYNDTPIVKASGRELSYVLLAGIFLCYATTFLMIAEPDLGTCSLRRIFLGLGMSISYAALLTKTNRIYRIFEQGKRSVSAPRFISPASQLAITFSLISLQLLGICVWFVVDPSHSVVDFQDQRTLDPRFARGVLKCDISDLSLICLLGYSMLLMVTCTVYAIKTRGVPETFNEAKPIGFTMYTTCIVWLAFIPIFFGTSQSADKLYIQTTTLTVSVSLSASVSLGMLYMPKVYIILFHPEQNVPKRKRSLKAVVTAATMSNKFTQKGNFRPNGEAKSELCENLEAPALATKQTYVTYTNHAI

SMILES | Emax | EC50
CN1C(=O)N(c2c(F)cc(C#Cc3ccccc3)cc2F)C(=O)C[C@@]1(C)c1nn(C)c2ncccc12 [Example 17, (6S)-3-[2,6-Difluoro-4-(2-phenylethynyl)phenyl]-1,6-dimethyl-6-(1-methylpyrazolo[3,4-b]pyridin-3-yl)hexahydropyrimidine-2,4-dione] | 154% | 126 nM
Cn1cc([C@]2(C)CC(=O)N(c3c(F)cc(C#Cc4ccccc4)cc3F)C(=O)N2)cn1 [Example 5, (6S)-3-[2,6-Difluoro-4-(2-phenylethynyl)phenyl]-6-methyl-6-(1-methylpyrazol-4-yl)hexahydropyrimidine-2,4-dione] | 103% | 110 nM
CN1C(=O)N(c2c(F)cc(C#Cc3ccccc3)cc2F)C(=O)C[C@@]1(C)c1cnn(C)n1 [Example 33, (6S)-3-[2,6-Difluoro-4-(2-phenylethynyl)phenyl]-1,6-dimethyl-6-(2-methyltriazol-4-yl)hexahydropyrimidine-2,4-dione] | 196% | 59 nM
CN1C(=O)N(c2c(F)cc(C#Cc3ccccc3)cc2F)C(=O)C[C@@]1(C)c1cnn2ccccc12 [Example 14, (6S)-3-[2,6-Difluoro-4-(2-phenylethynyl)phenyl]-1,6-dimethyl-6-pyrazolo[1,5-a]pyridin-3-yl-hexahydropyrimidine-2,4-dione] | 137% | 93 nM
CN1C(=O)N(c2c(F)cc(C#Cc3ccccc3)cc2F)C(=O)C[C@@]1(C)c1cncs1 [Example 42, (6S)-3-[2,6-Difluoro-4-(2-phenylethynyl)phenyl]-1,6-dimethyl-6-thiazol-5-yl-hexahydropyrimidine-2,4-dione] | 135% | 86 nM
CN1C(=O)N(c2c(F)cc(C#Cc3ccccc3)cc2F)C(=O)C[C@@]1(C)c1cnn(CCO)c1 [Example 23, (6S)-3-[2,6-Difluoro-4-(2-phenylethynyl)phenyl]-6-[1-(2-hydroxyethyl)pyrazol-4-yl]-1,6-dimethyl-hexahydropyrimidine-2,4-dione] | 147% | 108 nM
COCCCn1cc([C@]2(C)CC(=O)N(c3c(F)cc(C#Cc4ccccc4)cc3F)C(=O)N2C)cn1 [Example 21, (6S)-3-[2,6-Difluoro-4-(2-phenylethynyl)phenyl]-6-[1-(3-methoxypropyl)pyrazol-4-yl]-1,6-dimethyl-hexahydropyrimidine-2,4-dione] | 136% | 70 nM
CN1C(=O)N(c2c(F)cc(C#Cc3ccccc3)cc2F)C(=O)C[C@@]1(C)c1cnn(CC2COC2)c1 [Example 61, (6S)-3-[2,6-Difluoro-4-(2-phenylethynyl)phenyl]-1,6-dimethyl-6-[1-(oxetan-3-ylmethyl)pyrazol-4-yl]hexahydropyrimidine-2,4-dione] | 110% | 63 nM
CN1C(=O)N(c2c(F)cc(C#Cc3ccccc3)cc2Cl)C(=O)C[C@@]1(C)c1cnn(C)c1 [Example 44, (6S)-3-[2-Chloro-6-fluoro-4-(2-phenylethynyl)phenyl]-1,6-dimethyl-6-(1-methylpyrazol-4-yl)hexahydropyrimidine-2,4-dione] | 153% | 99 nM
CCn1ccc([C@]2(C)CC(=O)N(c3c(F)cc(C#Cc4ccccc4)cc3F)C(=O)N2C)n1 [Example 28, (6S)-3-[2,6-Difluoro-4-(2-phenylethynyl)phenyl]-6-(1-ethylpyrazol-3-yl)-1,6-dimethyl-hexahydropyrimidine-2,4-dione] | 139% | 96 nM
CN1C(=O)N(c2ccc(C#Cc3ccccc3)cc2Cl)C(=O)C[C@@]1(C)c1cnn(C)c1 [Example 37, (6S)-3-[2-Chloro-4-(2-phenylethynyl)phenyl]-1,6-dimethyl-6-(1-methylpyrazol-4-yl)hexahydropyrimidine-2,4-dione] | 175% | 112 nM
CN1C(=O)N(c2c(F)cc(C#Cc3ccccc3)cc2F)C(=O)C[C@@]1(C)c1cn(C)c2ncccc12 [Example 9, (6S)-3-[2,6-Difluoro-4-(2-phenylethynyl)phenyl]-1,6-dimethyl-6-(1-methylpyrrolo[2,3-b]pyridin-3-yl)hexahydropyrimidine-2,4-dione] | 155% | 81 nM

The next lines start with the values.

Emax | EC50 | SMILES
164% | 41 nM | CN1C(=O)N(c2c(F)cc(C#Cc3cccnc3)cc2F)C(=O)C[C@@]1(C)c1cn[nH]c1 [Example 36, (6S)-3-[2,6-Difluoro-4-[2-(3-pyridyl)ethynyl]phenyl]-1,6-dimethyl-6-(1H-pyrazol-4-yl)hexahydropyrimidine-2,4-dione]
152% | 39 nM | CN1C(=O)N(c2c(F)cc(C#Cc3ccccc3)cc2F)C(=O)C[C@@]1(C)c1ccsn1 [Example 38, (6S)-3-[2,6-Difluoro-4-(2-phenylethynyl)phenyl]-6-isothiazol-3-yl-1,6-dimethyl-hexahydropyrimidine-2,4-dione]
139% | 36 nM | CC(C)n1cc([C@]2(C)CC(=O)N(c3c(F)cc(C#Cc4ccccc4)cc3F)C(=O)N2C)cn1 [Example 19, (6S)-3-[2,6-Difluoro-4-(2-phenylethynyl)phenyl]-6-(1-isopropylpyrazol-4-yl)-1,6-dimethyl-hexahydropyrimidine-2,4-dione]
114% | 20 nM | CN1C(=O)N(c2c(F)cc(C#Cc3ccccc3)cc2F)C(=O)C[C@@]1(C)c1cnn[nH]1 [Example 32, (6S)-3-[2,6-Difluoro-4-(2-phenylethynyl)phenyl]-1,6-dimethyl-6-(1H-triazol-5-yl)hexahydropyrimidine-2,4-dione]
142% | 55 nM | CN1C(=O)N(c2c(F)cc(C#Cc3ccc(F)cc3)cc2F)C(=O)C[C@@]1(C)c1cnn(C)c1 [Example 49, (6S)-3-[2,6-Difluoro-4-[2-(4-fluorophenyl)ethynyl]phenyl]-1,6-dimethyl-6-(1-methylpyrazol-4-yl)hexahydropyrimidine-2,4-dione]
145% | 17 nM | CN1C(=O)N(c2c(F)cc(C#Cc3ccccc3F)cc2F)C(=O)C[C@@]1(C)c1cn[nH]c1 [Example 53, (6S)-3-[2,6-Difluoro-4-[2-(2-fluorophenyl)ethynyl]phenyl]-1,6-dimethyl-6-(1H-pyrazol-4-yl)hexahydropyrimidine-2,4-dione]
127% | 31 nM | CN1C(=O)N(c2c(F)cc(C#Cc3ccccc3)cc2F)C(=O)C[C@@]1(C)c1cnn(C2CC2)c1 [Example 52, (6S)-6-(1-Cyclopropylpyrazol-4-yl)-3-[2,6-difluoro-4-(2-phenylethynyl)phenyl]-1,6-dimethyl-hexahydropyrimidine-2,4-dione]
143% | 59 nM | COCCn1ccc([C@]2(C)CC(=O)N(c3c(F)cc(C#Cc4ccccc4)cc3F)C(=O)N2C)n1 [Example 30, (6S)-3-[2,6-Difluoro-4-(2-phenylethynyl)phenyl]-6-[1-(2-methoxyethyl)pyrazol-3-yl]-1,6-dimethyl-hexahydropyrimidine-2,4-dione]
134% | 54 nM | CN1C(=O)N(c2c(F)cc(C#Cc3cccc(F)c3F)cc2F)C(=O)C[C@@]1(C)c1cn[nH]c1 [Example 55, (6S)-3-[4-[2-(2,3-Difluorophenyl)ethynyl]-2,6-difluoro-phenyl]-1,6-dimethyl-6-(1H-pyrazol-4-yl)hexahydropyrimidine-2,4-dione]
135% | 27 nM | CN1C(=O)N(c2c(F)cc(C#Cc3ccc(F)cc3)cc2F)C(=O)C[C@@]1(C)c1cn[nH]c1 [Example 54, (6S)-3-[2,6-Difluoro-4-[2-(4-fluorophenyl)ethynyl]phenyl]-1,6-dimethyl-6-(1H-pyrazol-4-yl)hexahydropyrimidine-2,4-dione]
126% | 39 nM | CC[C@@]1(c2cn[nH]c2)CC(=O)N(c2c(F)cc(C#Cc3ccccc3)cc2F)C(=O)N1C [Example 45, (6S)-3-[2,6-Difluoro-4-(2-phenylethynyl)phenyl]-6-ethyl-1-methyl-6-(1H-pyrazol-4-yl)hexahydropyrimidine-2,4-dione]
